Where “and” joins values, the source holds several entries; their conditions need not be identical. Identical values can stand only once. Inconclusive results and toxic doses are left out. Rule for the calls: active = survival T/C of 150% or more; inactive = T/C below 125% in these data.
Test system: P388 leukemia ip, CD2F1 mice, survival T/C
Assay: NCI In Vivo Anticancer Drug Screen. Data for tumor model P388 Leukemia (intraperitoneal) in CD2F1 (CDF1) mice
Settings: endpoint: median survival time, higher = longer survival
In short: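 Mice carrying the transplanted tumor received test compound or vehicle. Survival was recorded in each group, and the value is the treated-group measurement divided by that of the vehicle-treated control group.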

[1] = dose: 100.0 mg/kg/injection, schedule: Q01DX001 (ip), vehicle: saline with Tween-80
[2] = dose: 200.0 mg/kg/injection, schedule: Q01DX001 (ip), vehicle: saline with Tween-80
[3] = dose: 400.0 mg/kg/injection, schedule: Q01DX001 (ip), vehicle: saline with Tween-80
[4] = dose: 12.5 mg/kg/injection, schedule: Q04DX003 (ip), vehicle: saline
[5] = dose: 50.0 mg/kg/injection, schedule: Q01DX009 (ip), vehicle: saline
[6] = dose: 60.0 mg/kg/injection, schedule: Q01DX005 (ip), vehicle: Klucel (hydroxypropylcellulose) (HPC)
[7] = dose: 120.0 mg/kg/injection, schedule: Q01DX005 (ip), vehicle: Klucel (hydroxypropylcellulose) (HPC)
[8] = dose: 240.0 mg/kg/injection, schedule: Q01DX005 (ip), vehicle: Klucel (hydroxypropylcellulose) (HPC)
[9] = dose: 60.0 mg/kg/injection, schedule: Q01DX005 (ip), vehicle: saline with Tween-80
[10] = dose: 120.0 mg/kg/injection, schedule: Q01DX005 (ip), vehicle: saline with Tween-80
[11] = dose: 240.0 mg/kg/injection, schedule: Q01DX005 (ip), vehicle: saline with Tween-80
[12] = dose: 50.0 mg/kg/injection, schedule: Q01DX009 (ip), vehicle: Klucel (hydroxypropylcellulose) (HPC)
[13] = dose: 100.0 mg/kg/injection, schedule: Q01DX009 (ip), vehicle: Klucel (hydroxypropylcellulose) (HPC)
[14] = dose: 200.0 mg/kg/injection, schedule: Q01DX009 (ip), vehicle: Klucel (hydroxypropylcellulose) (HPC)
[15] = dose: 25.0 mg/kg/injection, schedule: Q01DX009 (ip), vehicle: saline with Tween-80
[16] = dose: 50.0 mg/kg/injection, schedule: Q01DX009 (ip), vehicle: saline with Tween-80
[17] = dose: 100.0 mg/kg/injection, schedule: Q01DX009 (ip), vehicle: saline with Tween-80
[18] = dose: 50.0 mg/kg/injection, schedule: Q01DX005 (ip), vehicle: saline with Tween-80
[19] = dose: 100.0 mg/kg/injection, schedule: Q01DX005 (ip), vehicle: saline with Tween-80

Measured: T/C

CC(=O)Nc1ccc2nc3ccc(NC(C)=O)cc3[n+](-c3ccccc3)c2c1
active: dose: 31.3 mg/kg/injection, schedule: Q01DX010 (ip), vehicle: saline 177 % of control | dose: 62.5 mg/kg/injection, schedule: Q01DX010 (ip), vehicle: saline 204 % of control | dose: 125.0 mg/kg/injection, schedule: Q01DX010 (ip), vehicle: saline 200 % of control

COc1ccc(N/C(=C/C#N)c2ccccc2)cc1
inactive: [1] 100 % of control | [2] 99 % of control | [3] 95 % of control

CC1CN1P(=O)(N1CCCCCC1)N1CC1C (stereo unspecified)
inactive: [4] 104 % of control | dose: 22.0 mg/kg/injection, schedule: Q01DX009 (ip), vehicle: saline 122 % of control | dose: 25.0 mg/kg/injection, schedule: Q04DX003 (ip), vehicle: saline 100 % of control | dose: 75.0 mg/kg/injection, schedule: Q01DX009 (ip), vehicle: saline 111 % of control
active: dose: 33.0 mg/kg/injection, schedule: Q01DX009 (ip), vehicle: saline 155 % of control | [5] 154 % of control and 166 % of control | dose: 100.0 mg/kg/injection, schedule: Q04DX003 (ip), vehicle: saline 158 % of control

Nc1nc(SCC(=O)O)[nH]c(=O)c1NS(=O)(=O)c1ccccc1[N+](=O)[O-]
inactive: [6] 90 % of control | [7] 91 % of control | [8] 96 % of control

O=C(/C(=C(/[O-])C(F)(F)F)[n+]1cccc2ccccc21)C(F)(F)F
inactive: [9] 104 % of control | [10] 91 % of control | [11] 99 % of control

CC1(C)CC(=O)C(CC(=O)c2ccccc2)=C(NN=C(N)N)C1
inactive: [12] 101 % of control | [13] 100 % of control | [14] 91 % of control

Fc1cccc(CSc2ncnc3nc[nH]c23)c1
inactive: [15] 104 % of control | dose: 25.0 mg/kg/injection, schedule: Q04DX003 (ip), vehicle: saline with Tween-80 95 % of control | [16] 95 % of control | dose: 50.0 mg/kg/injection, schedule: Q04DX003 (ip), vehicle: saline with Tween-80 90 % of control | [17] 104 % of control | dose: 100.0 mg/kg/injection, schedule: Q04DX003 (ip), vehicle: saline with Tween-80 100 % of control and 104 % of control | dose: 200.0 mg/kg/injection, schedule: Q04DX003 (ip), vehicle: saline with Tween-80 100 % of control

C/C(=N\NC(=S)Nc1ccc(C(=O)O)cc1C)c1ccccn1
inactive: [18] 114 % of control | [19] 121 % of control

O=[N+]([O-])c1ccc(/C=C/Oc2ccccc2)o1
inactive: dose: 50.0 mg/kg/injection, schedule: Q01DX009 (ip), vehicle: suspension in saline 111 % of control | dose: 100.0 mg/kg/injection, schedule: Q01DX009 (ip), vehicle: suspension in saline 110 % of control | dose: 200.0 mg/kg/injection, schedule: Q01DX009 (ip), vehicle: suspension in saline 111 % of control

O=C(CBr)N(O)c1ccccc1OCc1ccccc1
inactive: dose: 6.25 mg/kg/injection, schedule: Q01DX001 (ip), vehicle: saline 116 % of control | dose: 12.5 mg/kg/injection, schedule: Q01DX001 (ip), vehicle: saline 98 % of control | dose: 25.0 mg/kg/injection, schedule: Q01DX001 (ip), vehicle: saline 104 % of control

COc1ccc(C#CC(O)C(F)(F)F)cc1 (stereo unspecified)
inactive: [15] 102 % of control | [16] 106 % of control | [17] 107 % of control

CC1=CC(C)(C)Nc2ccc(Cc3ccc4c(c3)C(C)=CC(C)(C)N4)cc21
inactive: [9] 101 % of control | [10] 94 % of control | [11] 95 % of control

OC(C1=NNC(C(O)c2ccccc2)=NN1)c1ccccc1 (stereo unspecified)
inactive: [9] 92 % of control | [10] 100 % of control | [11] 102 % of control

CC(=O)Oc1ccc2[nH]c(C)cc2c1
inactive: [1] 100 % of control | [2] 98 % of control | [3] 93 % of control | dose: 800.0 mg/kg/injection, schedule: Q01DX001 (ip), vehicle: saline with Tween-80 103 % of control

Cc1cc(C)nc(/C=C(\NC(=O)c2ccccc2)c2ccccc2)c1
inactive: [9] 108 % of control | [10] 102 % of control | [11] 101 % of control

CC(C)(C)C[C](C)(c1ccccc1)[Sn]([CH3])([CH3])[CH3] (stereo unspecified)
inactive: [12] 94 % of control | [13] 102 % of control | [14] 102 % of control

CC(=O)NC(CSC1(c2ccccc2)c2ccccc2-c2ccccc21)C(=O)O (stereo unspecified)
inactive: [6] 93 % of control | [7] 89 % of control

CN(C)c1ncnc2c1ncn2C1OC(CO)C(N)C1O (stereo unspecified)
active: dose: 75.0 mg/kg/injection, schedule: Q01DX009 (ip), vehicle: saline sonified 163 % of control
inactive: dose: 12.5 mg/kg/injection, schedule: Q01DX009 (ip), vehicle: saline with Tween-80 104 % of control | dose: 12.5 mg/kg/injection, schedule: Q01DX009 (ip), vehicle: saline 118 % of control | [15] 113 % of control | dose: 25.0 mg/kg/injection, schedule: Q01DX009 (ip), vehicle: saline 119 % of control | [5] 117 % of control | dose: 100.0 mg/kg/injection, schedule: Q04DX003 (ip), vehicle: saline sonified 119 % of control | dose: 200.0 mg/kg/injection, schedule: Q04DX003 (ip), vehicle: saline sonified 109 % of control | dose: 400.0 mg/kg/injection, schedule: Q04DX003 (ip), vehicle: saline sonified 95 % of control

CC(C)c1c(C[N+](C)([O-])C(C)Cc2ccccc2)n(C)n(-c2ccccc2)c1=O (stereo unspecified)
inactive: [9] 106 % of control | [10] 102 % of control | [11] 100 % of control

O=C(/C(Br)=C/c1ccccc1)/C(Br)=C/c1ccccc1
inactive: dose: 12.5 mg/kg/injection, schedule: Q01DX001 (ip), vehicle: saline with Tween-80 100 % of control | dose: 25.0 mg/kg/injection, schedule: Q01DX001 (ip), vehicle: saline with Tween-80 100 % of control | dose: 50.0 mg/kg/injection, schedule: Q01DX001 (ip), vehicle: saline with Tween-80 88 % of control

COc1cc(C2c3cc4c(cc3OC(C)(O)C2C(C)=O)OCO4)cc(OC)c1OC (stereo unspecified)
inactive: [9] 87 % of control | [10] 94 % of control | [11] 100 % of control

CC(C)CC1SCC(=O)N1c1nncs1 (stereo unspecified)
inactive: [9] 103 % of control | [10] 97 % of control | [11] 98 % of control

Cc1ccc(Nc2ncnc3c2c(=O)n(C)c(=O)n3C)cc1C
inactive: dose: 12.5 mg/kg/injection, schedule: Q01DX005 (ip), vehicle: saline with Tween-80 100 % of control | dose: 25.0 mg/kg/injection, schedule: Q01DX005 (ip), vehicle: saline with Tween-80 100 % of control | [18] 86 % of control and 91 % of control | [19] 88 % of control | dose: 200.0 mg/kg/injection, schedule: Q01DX005 (ip), vehicle: saline with Tween-80 96 % of control

CCOC(=O)Cn1/c(=N/N=C(\C)c2ccc([N+](=O)[O-])o2)sc2cc(Cl)ccc21
inactive: [6] 102 % of control | [7] 106 % of control and 96 % of control | [8] 101 % of control and 91 % of control

C[CH2][Sn]1([CH2]C)[O]C(=O)CC(=O)[O]1
inactive: dose: 1.56 mg/kg/injection, schedule: Q04DX003 (ip), vehicle: saline 105 % of control and 120 % of control | dose: 3.12 mg/kg/injection, schedule: Q04DX003 (ip), vehicle: saline 115 % of control and 118 % of control | dose: 6.25 mg/kg/injection, schedule: Q04DX003 (ip), vehicle: saline 114 % of control and 124 % of control | [4] 109 % of control

From PubChem BioAssay AID330 (DTP/NCI, 2004)
